# Test results reported in patent US8796320B2, “1,3,4-Oxadiazole-2-carboxamide compound” (General Incorporated Association Pharma Valley Project …, priority 2009, dated 2014).
# Counter-ions that a name gives are not always drawn.
# What was measured:
# Type in all cases: cell-based
# STAT3 = STAT3 transcription inhibition test (reporter gene method); settings: Homo sapiens; compound at 100 μM; STAT3 reporter HeLa stable cell line, oncostatin M 10 ng/mL, 4 hours; read-out: STAT3 transcription inhibitory activity (%)
# Experimental: The inhibition of STAT3 transcription was evaluated by using STAT3 reporter HeLa stable cell line (Panomics Inc., catalog No. RC0003), a cell line for the reporter gene method, and performing the following method according to the appendix included therein.
# STAT3, reporter HeLa stable cell line subcultured and maintained in a Dulbecco's modified Eagle's medium (DMEM) containing 10% fetal bovine serum, 100 units/mL penicillin, and 100 μg/mL streptomycin was inoculated at a concentration of 40000 cells/well to a 96-well plate (white) and attached to the plate by overnight incubation at 37° C. under 5% CO2. After addition of each evaluation compound adjusted to various concentrations (adjusted with a DMSO solution), the cells were precultured for 1 hour. Then, oncostatin M for activating STAT3 was added at a final concentration 10 ng/mL, and the cells were further cultured at 37° C. under 5% CO2 for 4 hours. Luciferase activity derived from the cells was determined using Steady-Glo Luciferase Assay System (Promega Corp.), and STAT3 transcriptional activity scores were calculated according to the following formula: STAT3 transcriptional activity score (%)=100×(Lchem−L0)/(LDMSO−L0) • L0: luminescence intensity obtained without stimulation with oncostatin M • Lchem: luminescence intensity obtained by the addition of a test sample • LDMSO: luminescence intensity obtained by the addition of only a solvent for dissolving a test sample
# The test results were indicated in the rate of inhibition of STAT3 transcription by each compound at a concentration of 100 μM.
# [1] = tested on: Human lymphoma SCC-3 cells; test: SCC-3 cell growth inhibition test (MTT method); settings: 72-hour culture
# Experimental: Human lymphoma SCC-3 cells purchased from Japan Health Sciences Foundation were cultured for […] at a density of 5000 cells/well in a 96-well plate with RPMI1640 (Sigma-Aldrich Corp.) containing 10% fetal bovine serum (FBS; GIBCO) as a culture medium.
# Simultaneously with cell inoculation, each test compound diluted to various concentrations with an RPMI medium was added to each well. After 72-hour culture, cell growth inhibitory activity was determined by the MTT method (J. Immunol. Methods, 1993, 65, 581-593) using a microplate reader (NJ-2300, BioTek Instruments, Inc.).
# The test results were indicated in a concentration (IC50) at which 50% cell growth was inhibited.
# MDA-MB-468 = MDA-MB-468 cell growth inhibitory activity; settings: Homo sapiens; compound at 20 μM; MDA-MB-468, 72 hours
# Experimental: MDA-MB-468 diluted with phenol red-free DMEM/F-12 (GIBCO; 10% FBS, 20 units/ml penicillin/streptomycin) was inoculated at a concentration of 2000 cells/well to a 96-well plate (Greiner Bio-One) and cultured overnight at 37° C. in the presence of 5% CO2. Then, a test sample solution (containing 2 (v/v)% DMSO) adjusted to 10 μM was added thereto at a concentration of 10 μL/well and contacted with the cells at 37° C. for 72 hours in the presence of 5% CO2. Each well was washed three times with a medium. Then, after addition of 100 μL/well of a medium and 20 μL/well of CellTiter 96 AQueous, One Solution Reagent (Promega Corp.), the cells were incubated at 37° C. for 2 hours in the presence of 5% CO2. Absorbance at 495 nm was measured using Multiplate reader (Molecular Devices, Inc.), and the rate of inhibition of cell growth was calculated according to the following formula: Rate of inhibition of cell growth (%)=100−100×(Abschem−bkgd)/(AbsDMSO−bkgd) • Abschem: absorbance obtained by the addition of a test sample • AbsDMSO: absorbance obtained by the addition of only a solvent for test sample dissolution • bkgd: absorbance obtained by the addition of CellTiter 96 AQueous One Solution Reagent to a medium for cell culture
# The test results were indicated in the rate of inhibition of cell growth by each compound at a concentration of 20 μM.
SMILES,inhibition at 100 µM (STAT3) [%],IC50 [1] [nM],inhibition at 20 µM (MDA-MB-468) [%]
"O=C(Nc1nnc(-c2ccco2)o1)c1cccc(-c2ccc(Cl)cc2)c1 [Compound Ia-11, 4′-Chloro-N-[5-(2-furyl)-1,3,4-oxadiazol-2-yl]-3-biphenylcarboxamide]",67,1800,
"C=Cc1ccc(-c2cccc(C(=O)Nc3nnc(-c4ccco4)o3)c2)cc1 [Compound Ia-13, N-[5-(2-Furyl)-1,3,4-oxadiazol-2-yl]-4′-vinyl-3-biphenylcarboxamide]",67,1000,
"O=Cc1ccc(-c2cccc(C(=O)Nc3nnc(-c4ccco4)o3)c2)cc1 [Compound Ia-17, 4′-Formyl-N-[5-(2-furyl)-1,3,4-oxadiazol-2-yl]-3-biphenylcarboxamide]",> 100,4000,54
"CC(=O)c1ccc(-c2cccc(C(=O)Nc3nnc(-c4ccco4)o3)c2)cc1 [Compound Ia-18, 4′-Acetyl-N-[5-(2-furyl)-1,3,4-oxadiazol-2-yl]-3-biphenylcarboxamide]",71,1900,
"N#Cc1ccc(-c2cccc(C(=O)Nc3nnc(-c4ccco4)o3)c2)cc1 [Compound Ia-21, 4′-Cyano-N-[5-(2-furyl)-1,3,4-oxadiazol-2-yl]-3-biphenylcarboxamide]",62,1700,91
"NS(=O)(=O)c1ccc(-c2cccc(C(=O)Nc3nnc(-c4ccco4)o3)c2)cc1 [Compound Ia-25, N-[5-(2-Furyl)-1,3,4-oxadiazol-2-yl]-4′-sulfamoyl-3-biphenylcarboxamide]",70,53000,
"Cn1ccc2ccc(-c3cccc(C(=O)Nc4nnc(-c5ccco5)o4)c3)cc21 [Compound Ia-43, N-[5-(2-Furyl)-1,3,4-oxadiazol-2-yl]-3-(1-methyl-6-indolyl)benzenecarboxamide]",74,1800,
"CN1CCc2cc(-c3cccc(C(=O)Nc4nnc(-c5ccco5)o4)c3)ccc21 [Compound Ia-44, N-[5-(2-Furyl)-1,3,4-oxadiazol-2-yl]-3-(1-methyl-5-indolinyl)benzenecarboxamide]",58,1800,
"Cn1ccc2cc(-c3cccc(C(=O)Nc4nnc(-c5ccco5)o4)c3)ccc21 [Compound Ia-50, N-[5-(2-Furyl)-1,3,4-oxadiazol-2-yl]-3-(1-methyl-5-indolyl)benzenecarboxamide]",> 100,1100,51
"O=C(Nc1nnc(-c2ccco2)o1)c1cccc(-c2ccc(-c3ccccc3)c(F)c2)c1 [Compound Ia-76, 3′-Fluoro-N-[5-(2-furyl)-1,3,4-oxadiazol-2-yl]-3-(p-terphenyl)carboxamide]",69,200,72
"CCc1ccc(-c2ccc(-c3cccc(C(=O)Nc4nnc(-c5ccco5)o4)c3)cc2)cc1 [Compound Ia-78, 4″-Ethyl-N-[5-(2-Furyl)-1,3,4-oxadiazol-2-yl]-3-(p-terphenyl)carboxamide]",70,< 100,64
"O=C(Nc1nnc(-c2ccco2)o1)c1cccc(-c2ccc(-c3ccc4ccccc4c3)cc2)c1 [Compound Ia-83, N-[5-(2-Furyl)-1,3,4-oxadiazol-2-yl]-4′-(2-naphthyl)-3-biphenylcarboxamide]",75,< 100,71
"O=C(Nc1nnc(-c2ccco2)o1)c1cccc(-c2ccc(C3CCCCC3)cc2)c1 [Compound Ia-84, 4′-Cyclohexyl-N-[5-(2-furyl)-1,3,4-oxadiazol-2-yl]-3-biphenylcarboxamide]",74,< 100,68
"O=C(Nc1nnc(-c2ccco2)o1)c1cccc(-c2ccc(N3CCOCC3)cc2)c1 [Compound Ia-87, N-[5-(2-Furyl)-1,3,4-oxadiazol-2-yl]-4′-morpholino-3-biphenylcarboxamide formate]",92,600,
"O=C(Nc1nnc(-c2ccco2)o1)c1cccc(-c2cnc3ccccc3c2)c1 [Compound Ia-99, N-[5-(2-Furyl)-1,3,4-oxadiazol-2-yl]-3-(3-quinolyl)benzenecarboxamide]",78,,55
"O=C(Nc1nnc(-c2ccco2)o1)c1cc(-c2cccc(Cl)c2)nc2nc(N3CCCCC3)sc12 [Compound Ib-2, 5-(3-Chlorophenyl)-N-[5-(2-furyl)-1,3,4-oxadiazol-2-yl]-2-piperidino-7-thiazolo[4,5-b]pyridinecarboxamide]",68,,> 100
"Cc1ccc(-c2cc(C(=O)Nc3nnc(-c4ccco4)o3)c3sc(N4CCCCC4)nc3n2)cc1 [Compound Ib-3, N-[5-(2-Furyl)-1,3,4-oxadiazol-2-yl]-5-(4-methylphenyl)-2-piperidino-7-thiazolo[4,5-b]pyridinecarboxamide]",> 100,,> 100
"COc1ccc(-c2cc(C(=O)Nc3nnc(-c4ccco4)o3)c3sc(N4CCCCC4)nc3n2)cc1OC [Compound Ib-4, N-[5-(2-Furyl)-1,3,4-oxadiazol-2-yl]-5-(3,4-dimethoxyphenyl)-2-piperidino-7-thiazolo[4,5-b]pyridinecarboxamide]",> 100,700,78
"O=C(Nc1nnc(-c2ccsc2)o1)c1cc(-c2ccccc2)nc2nc(N3CCCCC3)sc12 [Compound Ib-19, 5-Phenyl-2-piperidino-N-[5-(3-thienyl)-1,3,4-oxadiazol-2-yl]-7-thiazolo[4,5-b]pyridinecarboxamide]",90,,83
"O=C(Nc1nnc(-c2ccco2)o1)c1cc(-c2cccs2)nc2nc(N3CCCC3)sc12 [Compound Ib-26, N-[5-(2-Furyl)-1,3,4-oxadiazol-2-yl]-2-(1-pyrrolidinyl)-5-(2-thienyl)-7-thiazolo[4,5-b]pyridinecarboxamide]",60,,76
"O=C(Nc1nnc(-c2ccco2)o1)c1cc(-c2cccs2)nc2nc(N3CCCCC3)sc12 [Compound Ib-27, N-[5-(2-Furyl)-1,3,4-oxadiazol-2-yl]-2-piperidino-5-(2-thienyl)-7-thiazolo[4,5-b]pyridinecarboxamide]",67,,82
"O=C(Nc1nnc(-c2ccco2)o1)c1cc(-c2ccccc2)nc2nc(N3CCSCC3)sc12 [Compound Ib-30, N-[5-(2-Furyl)-1,3,4-oxadiazol-2-yl]-5-phenyl-2-(4-thiomorpholinyl)-7-thiazolo[4,5-b]pyridinecarboxamide]",> 100,,84
"O=C(Nc1nnc(-c2ccco2)o1)c1cc(-c2ccccc2)nc2nc(N3CCC(F)(F)CC3)sc12 [Compound Ib-32, 2-(4,4-Difluoropiperidino)-N-[5-(2-furyl)-1,3,4-oxadiazol-2-yl]-5-phenyl-7-thiazolo[4,5-b]pyridinecarboxamide]",80,,86
"COc1cc([N+](=O)[O-])ccc1-c1ccc(C(=O)Nc2nnc(-c3ccco3)o2)o1 [Compound Ic-18, N-[5-(2-Furyl)-1,3,4-oxadiazol-2-yl]-5-(2-methoxy-4-nitrophenyl)-2-furancarboxamide]",,16000,76
